From US11623931B2, “Bicyclic compounds for diagnosis and therapy” (AC IMMUNE SA, priority 2016, dated 2023) come the findings set out here.

The target of assay [1] is T1, aSyn aggregates on PD sections (Homo sapiens, UniProt P37840).
T1 construct: 20 μm frozen sections from amygdala were purchased from an external provider (Tissue Solutions Ltd.); tissue Tissue Solutions Ltd; host or cells: human PD amygdala, frozen sections, Braak stage V-VI
In words: Assay 1 (fluorescence based assay): direct staining of human Parkinson's disease brain sections. The class given is binding. Also on record: key: − (No); +/− (very weak); + (weak); ++ (good); +++ (strong). Particulars: staining intensity; compound 100 μM, frozen amygdala sections, PD Braak stage V-VI. The text has this:
Assay 1 (Fluorescence Based Assay):
Direct Staining of Compounds of this Invention to Human Parkinson's Disease Brain Sections
20 μm frozen sections from amygdala were purchased from an external provider (Tissue Solutions Ltd.). Donors were diagnosed with PD, Braak stage V-VI (Braak et al., Neurobiol. Aging, 2003, 24, 197-211) and thus with confirmed aSyn pathology. PD donors, Braak stage V-VI with mixed pathology, containing aSyn aggregates as well as Aβ plaques, were also used in this assay. Sections were kept at −80° C. until start of the experiment.
Brain sections were encircled with pap pen liquid blocker to reduce the volume of solution for the different incubations. Sections were fixed for 15 min at 4° C. with 4% paraformaldehyde and washed three times for 5 minutes with PBS (phosphate buffered saline) at room temperature. Test compounds were incubated on the sections at 100 μM in 50% ethanol in water for 30 min at room temperature, followed by three washes of 5 minutes with PBS. Sections were then saturated and permeabilized in blocking buffer (PBS, 10% NGS, 0.25% Triton) for 1 hour at room temperature and then incubated for 2 hours at room temperature with the primary antibodies against aSyn: aSyn-211 (SantaCruz Biotechnology sc-12767) or aSyn-pS129 (Abcam AB51253), and primary antibody against AR, 4G8, (Covance, SIG-39220). All primary antibodies diluted 1/250 in PBS, 5% NGS, 0.25% Triton. After three washes in PBS, the sections were incubated for 30 minutes at room temperature with a secondary anti-mouse antibody labeled with AlexaFluor555 (Invitrogen A21422) or anti-rabbit antibody labeled with AlexaFluor555 (Invitrogen A21428) and further washed three times in PBS. To reduce auto-fluorescence of the tissue, the sections were incubated in a solution of 0.1% Sudan Black (Sigma 199664) in 70% ethanol for 15 min at room temperature, followed by four washes with PBS and mounted under cover slips using ProLong Gold Antifade reagent (Invitrogen P36930).
Sections were analyzed on the Nikon Eclipse Ti microscope to detect staining and imaged using Nikon DS-Fi2 camera and NIS-Element AR4.13.1 software.

The subject of assay [2] is Aβ plaques on AD sections. Briefly: Assay 1 (fluorescence based assay): direct staining of human Alzheimer's disease brain sections. The class given is binding. Also on record: key: − (No); +/− (very weak); + (weak); ++ (good); +++ (strong). Particulars: staining intensity; compound 100 μM, frozen amygdala sections, AD Braak stage V-VI. As for the experimental part: Direct Staining of Compounds of this Invention to Human Alzheimer's Disease Brain Sections 20 μm frozen sections from amygdala were purchased from an external provider (Tissue Solutions Ltd.). Donors were diagnosed with AD, Braak stage V-VI (Braak et al., Neurobiol. Aging, 1995, 16, 271-284) and thus with confirmed Aβ pathology. Sections were kept at −80° C. until start of the experiment. Brain sections were encircled with pap pen liquid blocker to reduce the volume of solution for the different incubations. Sections were fixed for 15 min at 4° C. with 4% paraformaldehyde and washed three times for 5 minutes with PBS at room temperature. Test compounds were incubated on the sections at 100 μM in 50% ethanol in water for 30 min at room temperature, followed by three washes of 5 minutes with PBS. Sections were then saturated and permeabilized in blocking buffer (PBS, 10% NGS, 0.25% Triton) for 1 hour at room temperature and then incubated for 2 hours at room temperature with the primary antibodies against AR, 4G8, (Covance, SIG-39220), diluted 1/250 in PBS, 5% NGS, and 0.25% Triton. After three washes in PBS, the sections were incubated for 30 minutes at room temperature with a secondary anti-mouse antibody labeled with AlexaFluor555 (Invitrogen A21422) and further washed three times in PBS. To reduce auto-fluorescence of the tissue, the sections were incubated in a solution of 0.1% Sudan Black (Sigma 199664) in 70% ethanol for 15 min at room temperature, followed by four washes with PBS and mounted under cover slips using ProLong Gold Antifade reagent (Invitrogen P36930). Sections were analyzed on the Nikon Eclipse Ti microscope to detect staining and imaged using Nikon DS-Fi2 camera and NIS-Element AR4.13.1 software.

`O=C1COCCN1c1ccc2nc(-c3ccc(N4CC[C@H](F)C4)nc3)sc2c1` [Example 73]: the “Staining of aSyn aggregates on PD sections” value (from here on “Staining of aSyn aggregates”) in assay [1] is listed as “++”. Also, the “Staining of Aβ plaques on AD sections” value in assay [2] is “+”.

As for `O=C1COCCN1c1ccc2nc(-c3ccc(N4CCC[C@H](F)C4)nc3)sc2c1` [Example 127], the “Staining of aSyn aggregates” value in assay [1] is on record as “++”. Further, the “Staining of Aβ plaques on AD sections” value in assay [2] was “+”.

For `CN(CCF)c1ccc(-c2ccc3cc(-c4cccnc4)sc3n2)cn1` [Example 57], the “Staining of aSyn aggregates” value in assay [1] is “++”. Moreover, the “Staining of Aβ plaques on AD sections” value in assay [2] is “+”.

Take `CN(C)c1ccc(-c2cc3ccc(-c4ccc(N5CCC(F)CC5)nc4)nc3s2)cn1` [Example 50]: the “Staining of aSyn aggregates” value in assay [1] is “++”. Moreover, the “Staining of Aβ plaques on AD sections” value in assay [2] was “+”.

Consider `Fc1ccncc1-c1ccc2sc(-c3ccc(N4CCCC4)nc3)nc2c1` [Example 40], for which the “Staining of aSyn aggregates” value in assay [1] was “+++”. Moreover, in assay [2], the “Staining of Aβ plaques on AD sections” value is “+”.

As for `CNc1ccc(-c2ccc3cc(-c4ccc(OCCF)cc4)sc3n2)cc1` [Example 11], the “Staining of aSyn aggregates” value in assay [1] was “+”. Besides, the “Staining of Aβ plaques on AD sections” value in assay [2] was “++”.

As to `F[C@@H]1CCN(c2ccc(-c3ccc4sc(-c5cccnc5)cc4n3)cn2)C1` [Example 44], the “Staining of aSyn aggregates” value in assay [1] was “+”. Also, in assay [2], the “Staining of Aβ plaques on AD sections” value is “−”.

In the case of `Cn1cc(-c2ccc3sc(-c4ccc(N5CCCC5)nc4F)nc3c2)cn1` [Example 42], in assay [1], the “Staining of aSyn aggregates” value is “+”. Also, the “Staining of Aβ plaques on AD sections” value in assay [2] was “+”.

Take `FCCOC1CCN(c2ccc3cc(-c4cccnc4)sc3n2)CC1` [Example 67]: the “Staining of aSyn aggregates” value in assay [1] is “+”. Moreover, the “Staining of Aβ plaques on AD sections” value in assay [2] is on record as “+”.

Take `Fc1ncccc1-c1cc2ccc(-c3ccc(N4CCCC4)nc3)nc2s1` [Example 34]: the “Staining of aSyn aggregates” value in assay [1] is “++”. The “Staining of Aβ plaques on AD sections” value in assay [2] is “+++”.

For `c1cncc(-c2ccc3nc(-c4ccc(N5CCCC5)nc4)sc3c2)c1` [Example 19], the “Staining of aSyn aggregates” value in assay [1] is “+++”. For the same molecule, the “Staining of Aβ plaques on AD sections” value in assay [2] is recorded as “+++”.

Turning to `CNc1ccc(-c2ccc3cc(-c4ccc(C#N)cn4)sc3n2)cn1` [Example 5], the “Staining of aSyn aggregates” value in assay [1] is on record as “+”. Moreover, the “Staining of Aβ plaques on AD sections” value in assay [2] is “+”.

As for `CNc1ccc(-c2ccc3cc(-c4cccnc4)sc3n2)cc1` [Example 14], in assay [1], the “Staining of aSyn aggregates” value was “++”. Besides, the “Staining of Aβ plaques on AD sections” value in assay [2] was “+++”.

Consider `c1cncc(-c2cc3ccc(Nc4ccc(N5CCOCC5)nc4)nc3s2)c1` [Example 66], for which, in assay [1], the “Staining of aSyn aggregates” value is “+”. The “Staining of Aβ plaques on AD sections” value in assay [2] is on record as “++”.

`CN1CCN(c2ccc3nc(-c4ccc(N5CC[C@@H](F)C5)nc4)sc3c2)C(=O)C1` [Example 70]: in assay [1], the “Staining of aSyn aggregates” value was “+”. In assay [2], the “Staining of Aβ plaques on AD sections” value is “+”.

Regarding `FCCNc1ccc(-c2ccc3cc(-c4cccnc4)sc3n2)cn1` [Example 56], in assay [1], the “Staining of aSyn aggregates” value is “++”. Further, the “Staining of Aβ plaques on AD sections” value in assay [2] is given as “++”.

For `CNc1ccc(-c2ccc3cc(-c4ccc(F)nc4)sc3n2)cn1` [Example 8], the “Staining of aSyn aggregates” value in assay [1] is “++”. Further, the “Staining of Aβ plaques on AD sections” value in assay [2] was “+++”.

On to `CN1CCN(c2ccc3nc(-c4ccc(N5CC[C@H](F)C5)nc4)sc3c2)C(=O)C1` [Example 71], for which the “Staining of aSyn aggregates” value in assay [1] is given as “+”. Moreover, the “Staining of Aβ plaques on AD sections” value in assay [2] was “−”.

In the case of `c1cncc(-c2cc3ccc(Nc4ccc(N5CCOCC5)cc4)nc3s2)c1` [Example 65], the “Staining of aSyn aggregates” value in assay [1] is recorded as “+”. Further, the “Staining of Aβ plaques on AD sections” value in assay [2] is reported as “+++”.

With `c1cncc(-c2cnc3sc(-c4ccc(N5CCCC5)nc4)nc3c2)c1` [Example 23], the “Staining of aSyn aggregates” value in assay [1] is given as “++”. Moreover, the “Staining of Aβ plaques on AD sections” value in assay [2] was “+”.

Consider `FCCOC1CCN(c2cc3nc(-c4ccc(N5CCCC5)nc4)sc3cn2)CC1` [Example 68], for which, in assay [1], the “Staining of aSyn aggregates” value was “+”. Further, the “Staining of Aβ plaques on AD sections” value in assay [2] is “−”.

Turning to `CN(C)c1ccc(-c2ccc3cc(-c4ccc(N(C)C)nc4)sc3n2)cn1` [Example 37], in assay [1], the “Staining of aSyn aggregates” value is on record as “++”. Besides, the “Staining of Aβ plaques on AD sections” value in assay [2] is listed as “+”.

Take `c1cncc(-c2cc3ccc(-c4ccc(N5CCOCC5)cc4)nc3s2)c1` [Example 33]: the “Staining of aSyn aggregates” value in assay [1] is on record as “+++”. Moreover, the “Staining of Aβ plaques on AD sections” value in assay [2] is “+”.

Consider `CN1CCN(c2ccc3nc(-c4ccc(N5CCCC5)nc4)sc3c2)C(=O)C1` [Example 69], for which the “Staining of aSyn aggregates” value in assay [1] was “++”. Also, in assay [2], the “Staining of Aβ plaques on AD sections” value is “+”.

For `FCCOc1ccc(-c2cc3ccc(Nc4ccc5c(c4)OCCO5)nc3s2)cc1` [Example 58], the “Staining of aSyn aggregates” value in assay [1] is recorded as “+”. Further, the “Staining of Aβ plaques on AD sections” value in assay [2] is recorded as “++”.

Turning to `c1cncc(-c2ccc3nc(-c4ccc(N5CCCC5)nc4)sc3n2)c1` [Example 38], in assay [1], the “Staining of aSyn aggregates” value is listed as “+++”. For the same molecule, in assay [2], the “Staining of Aβ plaques on AD sections” value was “+++”.

`c1cncc(-c2cc3ncc(-c4ccc(N5CCCC5)nc4)cc3s2)c1` [Example 18]: in assay [1], the “Staining of aSyn aggregates” value is given as “+++”. The “Staining of Aβ plaques on AD sections” value in assay [2] is recorded as “+++”.

Consider `FCCOc1ccc(Nc2ccc3cc(-c4cccnc4)sc3n2)cc1` [Example 63], for which, in assay [1], the “Staining of aSyn aggregates” value is “++”. In addition, the “Staining of Aβ plaques on AD sections” value in assay [2] is “++”.

As for `CN(C)c1ccc(-c2cc3ccc(-c4ccc(F)nc4)nc3s2)cn1` [Example 36], in assay [1], the “Staining of aSyn aggregates” value was “+++”. In addition, the “Staining of Aβ plaques on AD sections” value in assay [2] is listed as “+++”.

With `c1cncc(-c2ccc3sc(-c4ccc(N5CCCC5)nc4)nc3c2)c1` [Example 39], the “Staining of aSyn aggregates” value in assay [1] is on record as “+”. The “Staining of Aβ plaques on AD sections” value in assay [2] was “+”.

On to `CNc1ccc(-c2cc3ccc(Nc4ccc(N5CCOCC5)cc4)nc3s2)cc1` [Example 76], for which the “Staining of aSyn aggregates” value in assay [1] is “+”. The “Staining of Aβ plaques on AD sections” value in assay [2] is reported as “+++”.

In the case of `FC1CCN(c2ccc(-c3ccc4cc(-c5cccnc5)sc4n3)cn2)CC1` [Example 48], the “Staining of aSyn aggregates” value in assay [1] was “++”. Besides, the “Staining of Aβ plaques on AD sections” value in assay [2] is reported as “+”.

On to `Cn1cc(-c2ccc3sc(-c4ccc(N5CC[C@@H](F)C5)nc4)nc3c2)cn1` [Example 52], for which the “Staining of aSyn aggregates” value in assay [1] was “+”. Further, in assay [2], the “Staining of Aβ plaques on AD sections” value was “−”.

Take `COc1ccc(C#Cc2ccc3cc(-c4cccnc4)sc3n2)cc1` [Example 77]: in assay [1], the “Staining of aSyn aggregates” value is given as “++”. In assay [2], the “Staining of Aβ plaques on AD sections” value is “++”.

Regarding `F[C@@H]1CCN(c2ccc(-c3cc4nc(-c5cccnc5)ccc4s3)cn2)C1` [Example 46], the “Staining of aSyn aggregates” value in assay [1] is listed as “+”. Further, the “Staining of Aβ plaques on AD sections” value in assay [2] was “+”.

For `O=C1COCCN1c1ccc2nc(-c3ccc(N4CC[C@@H](F)C4)nc3)sc2c1` [Example 72], the “Staining of aSyn aggregates” value in assay [1] is reported as “+++”. The “Staining of Aβ plaques on AD sections” value in assay [2] was “+”.

For `CNc1ccc(-c2cc3ccc(Nc4ccc(OCCF)cc4)nc3s2)cc1` [Example 74], the “Staining of aSyn aggregates” value in assay [1] is recorded as “+”. For the same molecule, the “Staining of Aβ plaques on AD sections” value in assay [2] is “+++”.
